System: G-401 tumor spheroids, viability % test/control
Experiment: Anticancer human tumor G-401 cell line growth inhibition;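 note: spheroids exposed to compound for 7 days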;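 for viability, T/C: 100% = DMSO vehicle-treated spheroids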
Settings: spheroids with HUVEC and MSC; for IC50: curve of first compound; for viability, T/C: stronger effect = lower value
Method in brief: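 Single agents and combinations were tested on spheroids built from tumor cells plus HUVEC and hMSC, at half-log dilutions starting at or near clinical Cmax, else 10 microM; final DMSO 0.25% (v/v).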

[1] = second compound 30 pM, first compound 0.0316 µM
[2] = second compound 30 pM, first compound 0.1 µM
[3] = second compound 30 pM, first compound 0.316 µM
[4] = second compound 30 pM, first compound 1 µM
[5] = second compound 30 pM, first compound 3.16 µM
[6] = second compound 30 pM, first compound 10 µM
[7] = second compound 94.9 pM, first compound 0.0316 µM
[8] = second compound 94.9 pM, first compound 0.1 µM
[9] = second compound 94.9 pM, first compound 0.316 µM
[10] = second compound 94.9 pM, first compound 1 µM
[11] = second compound 94.9 pM, first compound 3.16 µM
[12] = second compound 94.9 pM, first compound 10 µM
[13] = second compound 0.0003 µM, first compound 0.0316 µM
[14] = second compound 0.0003 µM, first compound 0.1 µM
[15] = second compound 0.0003 µM, first compound 0.316 µM
[16] = second compound 0.0003 µM, first compound 1 µM
[17] = second compound 0.0003 µM, first compound 3.16 µM
[18] = second compound 0.0003 µM, first compound 10 µM
[19] = second compound 0.000949 µM, first compound 0.0316 µM
[20] = second compound 0.000949 µM, first compound 0.1 µM
[21] = second compound 0.000949 µM, first compound 0.316 µM
[22] = second compound 0.000949 µM, first compound 1 µM
[23] = second compound 0.000949 µM, first compound 3.16 µM
[24] = second compound 0.000949 µM, first compound 10 µM
[25] = second compound 0.003 µM, first compound 0.0316 µM
[26] = second compound 0.003 µM, first compound 0.1 µM
[27] = second compound 0.003 µM, first compound 0.316 µM
[28] = second compound 0.003 µM, first compound 1 µM
[29] = second compound 0.003 µM, first compound 3.16 µM
[30] = second compound 0.003 µM, first compound 10 µM

## Cc1cc(C)c(CNC(=O)c2cc(-c3ccc(CN4CCOCC4)cc3)cc3c2cnn3C2CCCC2)c(=O)[nH]1 + COc1cc2c(cc1O)CCNC21CSC2c3c(OC(C)=O)c(C)c4c(c3C(COC1=O)N1C(O)C3Cc5cc(C)c(OC)c(O)c5C(C21)N3C)OCO4
Second compound 30 pM
  IC50: > 10000 nM
Second compound 94.9 pM
  IC50: 7070 nM
Second compound 0.0003 µM
  IC50: < 31.6 nM
Second compound 0.000949 µM
  IC50: < 31.6 nM
Second compound 0.003 µM
  IC50: < 31.6 nM
[1]
  viability, T/C: 107%
[2]
  viability, T/C: 109%
[3]
  viability, T/C: 111%
[4]
  viability, T/C: 119%
[5]
  viability, T/C: 97.7%
[6]
  viability, T/C: 53.9%
[7]
  viability, T/C: 93.3%
[8]
  viability, T/C: 110%
[9]
  viability, T/C: 106%
[10]
  viability, T/C: 107%
[11]
  viability, T/C: 81%
[12]
  viability, T/C: 36.6%
[13]
  viability, T/C: 43.3%
[14]
  viability, T/C: 46.5%
[15]
  viability, T/C: 37.9%
[16]
  viability, T/C: 30%
[17]
  viability, T/C: 25.2%
[18]
  viability, T/C: 17.4%
[19]
  viability, T/C: 9.71%
[20]
  viability, T/C: 9.04%
[21]
  viability, T/C: 6.87%
[22]
  viability, T/C: 6.92%
[23]
  viability, T/C: 6.27%
[24]
  viability, T/C: 4.18%
[25]
  viability, T/C: 11.6%
[26]
  viability, T/C: 0.13%
[27]
  viability, T/C: 0.27%
[28]
  viability, T/C: 0.15%
[29]
  viability, T/C: 0.54%
[30]
  viability, T/C: 0.2%

## Cc1sc2c(c1C)C(c1ccc(Cl)cc1)=NC(CC(=O)Nc1ccc(O)cc1)c1nnc(C)n1-2 (stereo not given) + COc1cc2c(cc1O)CCNC21CSC2c3c(OC(C)=O)c(C)c4c(c3C(COC1=O)N1C(O)C3Cc5cc(C)c(OC)c(O)c5C(C21)N3C)OCO4
Second compound 30 pM
  IC50: 160 nM
Second compound 94.9 pM
  IC50: 115 nM
Second compound 0.0003 µM
  IC50: < 9.49 nM
Second compound 0.000949 µM
  IC50: < 9.49 nM
Second compound 0.003 µM
  IC50: < 9.49 nM
Second compound 30 pM, first compound 0.00949 µM
  viability, T/C: 102%
Second compound 30 pM, first compound 0.03 µM
  viability, T/C: 83.3%
Second compound 30 pM, first compound 0.0949 µM
  viability, T/C: 63.9%
Second compound 30 pM, first compound 0.3 µM
  viability, T/C: 34.8%
Second compound 30 pM, first compound 0.949 µM
  viability, T/C: 17.8%
Second compound 30 pM, first compound 3 µM
  viability, T/C: 8.07%
Second compound 94.9 pM, first compound 0.00949 µM
  viability, T/C: 92.8%
Second compound 94.9 pM, first compound 0.03 µM
  viability, T/C: 74.7%
Second compound 94.9 pM, first compound 0.0949 µM
  viability, T/C: 55.1%
Second compound 94.9 pM, first compound 0.3 µM
  viability, T/C: 31.3%
Second compound 94.9 pM, first compound 0.949 µM
  viability, T/C: 12%
Second compound 94.9 pM, first compound 3 µM
  viability, T/C: 5.01%
Second compound 0.0003 µM, first compound 0.00949 µM
  viability, T/C: 35.1%
Second compound 0.0003 µM, first compound 0.03 µM
  viability, T/C: 38.7%
Second compound 0.0003 µM, first compound 0.0949 µM
  viability, T/C: 27.1%
Second compound 0.0003 µM, first compound 0.3 µM
  viability, T/C: 9.01%
Second compound 0.0003 µM, first compound 0.949 µM
  viability, T/C: 4.45%
Second compound 0.0003 µM, first compound 3 µM
  viability, T/C: 1.34%
Second compound 0.000949 µM, first compound 0.00949 µM
  viability, T/C: 19.8%
Second compound 0.000949 µM, first compound 0.03 µM
  viability, T/C: 3.94%
Second compound 0.000949 µM, first compound 0.0949 µM
  viability, T/C: 19.1%
Second compound 0.000949 µM, first compound 0.3 µM
  viability, T/C: 1.51%
Second compound 0.000949 µM, first compound 0.949 µM
  viability, T/C: 0.15%
Second compound 0.000949 µM, first compound 3 µM
  viability, T/C: 0.16%
Second compound 0.003 µM, first compound 0.00949 µM
  viability, T/C: 0.08%
Second compound 0.003 µM, first compound 0.03 µM
  viability, T/C: 0.07%
Second compound 0.003 µM, first compound 0.0949 µM
  viability, T/C: 0.12%
Second compound 0.003 µM, first compound 0.3 µM
  viability, T/C: 0.13%
Second compound 0.003 µM, first compound 0.949 µM
  viability, T/C: 0.12%
Second compound 0.003 µM, first compound 3 µM
  viability, T/C: 0.24%

## [2H]c1nc(C)nc([2H])c1-c1cc(NC[C@@H](C)c2cccc3c(C(=O)NC)ccnc23)ncn1 + COc1cc2c(cc1O)CCNC21CSC2c3c(OC(C)=O)c(C)c4c(c3C(COC1=O)N1C(O)C3Cc5cc(C)c(OC)c(O)c5C(C21)N3C)OCO4
Second compound 30 pM
  IC50: > 10000 nM
Second compound 94.9 pM
  IC50: > 10000 nM
Second compound 0.0003 µM
  IC50: < 31.6 nM
Second compound 0.000949 µM
  IC50: < 31.6 nM
Second compound 0.003 µM
  IC50: < 31.6 nM
[1]
  viability, T/C: 103%
[2]
  viability, T/C: 103%
[3]
  viability, T/C: 106%
[4]
  viability, T/C: 105%
[5]
  viability, T/C: 98.6%
[6]
  viability, T/C: 106%
[7]
  viability, T/C: 88.6%
[8]
  viability, T/C: 87.5%
[9]
  viability, T/C: 93%
[10]
  viability, T/C: 93.1%
[11]
  viability, T/C: 93.9%
[12]
  viability, T/C: 91.4%
[13]
  viability, T/C: 36.1%
[14]
  viability, T/C: 39.9%
[15]
  viability, T/C: 40%
[16]
  viability, T/C: 42.6%
[17]
  viability, T/C: 31.8%
[18]
  viability, T/C: 37.4%
[19]
  viability, T/C: 7.05%
[20]
  viability, T/C: 5.74%
[21]
  viability, T/C: 8.4%
[22]
  viability, T/C: 8.02%
[23]
  viability, T/C: 6.93%
[24]
  viability, T/C: 3.48%
[25]
  viability, T/C: 0.16%
[26]
  viability, T/C: 0.17%
[27]
  viability, T/C: 0.14%
[28]
  viability, T/C: 0.13%
[29]
  viability, T/C: 0.14%
[30]
  viability, T/C: 0.22%

— PubChem BioAssay AID1845203 (Molecular Pharmacology Branch, DTP, NCI, 2023)
